Measurements as given in patent US20250352497A1, “BIGUANIDE BASE COMPOSITIONS, BIGUANIDE BASE PHARMACEUTICAL COMPOSITIONS, AND THEIR PREPARATIONS AND USES” (ADA FORSYTH INSTITUTE, INC., priority 2022, published 2025).

How the values were obtained:
Assay type in all cases: cell-based
[1] = tested on: model microbiome simulating human oral microbiome; test: pH of model microbiome (supernatant and saliva-derived biofilm) after treatment in the presence of 2% sucrose
Method: (§1) Saliva samples were collected and pooled from 5 healthy volunteers as a model microbiome simulating human oral microbiome, and used to inoculate SHI medium containing different test compositions and controls.
(§2) 1 mL pooled saliva sample was added to each well of a 24-well plate that had been pre-coated with sterilized, cell-free saliva. The plate was incubated at 37° C. for 16 h in microaerobic conditions (2% O2, 5% CO2, balanced with nitrogen) to allow biofilm formation. After incubation, planktonic portion was collected, optical density was measured at 600 nm and cells were pelleted for DNA isolation. Meanwhile, 1 mL of SHI medium was added to the biofilm portion of each well, biofilm cells were dispersed by scraping and vortex to break the cell aggregates. Optical density was measured at 600 nm and cells were collected for DNA isolation.
Supernatant and biofilms prepared with the model microbiome simulating human oral microbiome according to Example III were treated with embodiments of the CHX base composition (e.g., solution embodiments of the CHX base composition prepared according to Example I (the CHX base solutions); and MSN3 prepared according to Example II(B)(ii)).
Supernatant and biofilms prepared with the model microbiome simulating human oral microbiome according to Example III were treated with CHX base solution (100 μg/mL, prepared according to Example I(A)); MSN3 (100 μg/mL and 125 μg/mL of CHX base, prepared according to Example I(B)); or nothing (control).

[2] = tested on: model microbiome simulating human oral microbiome; test: Bacterial killing effects on model microbiome (optical density at 600 nm)
Method: as §1, §2
However, the pH of the treated biofilm appeared to depend on the CHX base concentration administered. The pH of the biofilm treated with CHX base solutions and CHX base loaded MSN remained under 5.5 when the CHX base concentration was 75 μg/mL or lower. […]

[3] = tested on: model microbiome simulating human oral microbiome; test: Total colony forming units in supernatant and biofilm after treatment; details: supernatant and biofilms
Method: as §1, §2
CHX-G and CPC were also evaluated in the same model microbiome prepared in supernatant and biofilms according to Example III.

SMILES	pH of treated microbiome/biofilm compared with control ([1]; Example IV, 16 hr, 2% sucrose)	pH of the treated microbiome ([1]; supernatant and biofilms, various concentrations)	cells present after treatment ([2]; Example IV(B): CHX base solution 100 μg/mL, MSN3 100 and 125 μg/mL of CHX base)	survival/elimination of bacteria after treatment ([2]; Example IV, supernatant and biofilms)	pH of treated biofilms compared with untreated biofilms ([1]; Example V)	bacterial killing compared with MSN3 (200 μg/mL of CHX base) ([3]; 200 μg/mL)	bacteria remaining after treatment ([3]; Example V)
[H]/N=C(\N/C(=N/[H])NCCCCCCNC(=N)NC(=N)Nc1ccc(Cl)cc1)Nc1ccc(Cl)cc1 [CHX base, Chlorhexidine]	higher pH	≤ 6.9	abundant of cells	without complete elimination of bacteria			
N=C(NCCCCCCNC(=N)NC(=N)Nc1ccc(Cl)cc1)NC(=N)Nc1ccc(Cl)cc1.O=C(O)[C@H](O)[C@@H](O)[C@H](O)[C@H](O)CO.O=C(O)[C@H](O)[C@@H](O)[C@H](O)[C@H](O)CO [CHX-G, chlorhexidine digluconate]					higher pH	killed more bacteria	no trace of bacteria
